Article PMC6691788, “Design and synthesis of phthalazine-based compounds as potent anticancer agents with potential antiangiogenic activity via VEGFR-2 inhibition” (Journal of Enzyme Inhibition and Medicinal Chemistry, 2019)
“Also recorded” adds a separate entry of the source. Where two headings read alike, the source gives them in different places.

What was measured:
full NCI 60 cell panel [1] = assay: NCI 60 cell panel SRB screen, whole panel; type: cell-based, human; settings: Homo sapiens, 60 cell; for activity at 10 µM: mean over the panel, single dose 10 μM, read-out: Mean percent cell growth promotion; for inhibition at 10 µM: single dose 10 µM
SF-539 = assay: NCI 60 cell panel SRB screen; type: cell-based, human; settings: for GI50 / IC (TGI) / CC50: Homo sapiens, SF-539, 5 log dose; for CC50: 48 h, read-out: LC50 (the source's name)
HCT-15 = assay: NCI 60 cell panel SRB screen; type: cell-based; settings: Homo sapiens; for GI50 / IC (TGI) / CC50: HCT-15, 5 log dose; for CC50: 48 h, read-out: LC50 (the source's name); for activity at 10 µM: HCT-15, single dose 10 μM, read-out: percent cell growth promotion
COLO 205 = assay: NCI 60 cell panel SRB screen; type: cell-based; settings: Homo sapiens; for GI50 / IC (TGI) / CC50: COLO 205, 5 log dose; for CC50: 48 h, read-out: LC50 (the source's name); for activity at 10 µM: COLO 205, single dose 10 μM, read-out: percent cell growth promotion
786-0 = assay: NCI 60 cell panel SRB screen; type: cell-based; settings: Homo sapiens
UO-31 = assay: NCI 60 cell panel SRB screen; type: cell-based; settings: Homo sapiens; for activity at 10 µM: UO-31, single dose 10 μM, read-out: percent cell growth promotion
EKVX = assay: NCI 60 cell panel SRB screen; type: cell-based, human; settings: for GI50 / IC (TGI) / LC50: Homo sapiens, 5 log dose; for LC50: 48 h
HCT-116 cells = assay: Cell-cycle analysis by flow cytometry; type: cell-based; settings: HCT-116, at GI50 concentration (1.20 µM), 24 h and 48 h
Description: The cells then were collected by trypsinization, washed with phosphate buffered saline (PBS), and fixed in ice-cold absolute alcohol. Thereafter, cells were stained, using Cycletest^TM Plus DNA Reagent Kit (BD Biosciences, San Jose, CA), according to the manufacturer’s instructions. Cell cycle distribution was determined using a FACS Calibur flow cytometer (BD Biosciences, San Jose, CA).

UACC-62 = assay: NCI 60 cell panel SRB screen; type: cell-based; settings: for GI50 / activity at 10 µM / CC50: Homo sapiens; for GI50: UACC-62; for activity at 10 µM: UACC-62, read-out: percent cell growth promotion; for CC50 / TGI: UACC-62, 5 log dose; for CC50: 48 h, read-out: LC50 (the source's name)
SF-295 = assay: NCI 60 cell panel SRB screen; type: cell-based; settings: Homo sapiens; for GI50 / IC (TGI) / CC50: SF-295, 5 log dose; for CC50: 48 h, read-out: LC50 (the source's name); for activity at 10 µM: SF-295, single dose 10 μM, read-out: percent cell growth promotion
OVCAR-4 = assay: NCI 60 cell panel SRB screen; type: cell-based; settings: Homo sapiens; for GI50 / IC (TGI) / CC50: OVCAR-4, 5 log dose; for CC50: 48 h, read-out: LC50 (the source's name); for activity at 10 µM: OVCAR-4, single dose 10 μM, read-out: percent cell growth promotion
full NCI 60 cell panel [2] = assay: NCI 60 cell panel SRB screen, whole panel; type: cell-based, human; settings: for GI50: NCI 5-log dose, full 60 cell panel, read-out: GI50 values, range over the tested cell lines
NCI-H322M = assay: NCI 60 cell panel SRB screen; type: cell-based; settings: Homo sapiens; for GI50 / IC (TGI) / CC50: 5 log dose; for CC50: 48 h, read-out: LC50 (the source's name); for activity at 10 µM: single dose 10 μM, read-out: percent cell growth promotion
SK-MEL-2 = assay: NCI 60 cell panel SRB screen; type: cell-based; settings: for GI50 / IC (TGI) / CC50: Homo sapiens; for IC (TGI): read-out: TGI; for CC50: SK-MEL-2, 5 log dose, 48 h, read-out: LC50 (the source's name)
A498 = assay: NCI 60 cell panel SRB screen; type: cell-based; settings: Homo sapiens; for GI50 / IC (TGI) / CC50: A498, 5 log dose; for CC50: 48 h, read-out: LC50 (the source's name); for activity at 10 µM: A498, single dose 10 μM, read-out: percent cell growth promotion

SMILES: Clc1ccc(Nc2nnc(CNc3ccccc3)c3ccccc23)cc1 [Compound 16a, N-(4-Chlorophenyl)-4-((phenylamino)methyl)phthalazin-1-amine]
- activity at 10 µM (full NCI 60 cell panel [1]): 10.7%
- inhibition at 10 µM (full NCI 60 cell panel [1]; read-out: cell growth inhibition against various cell lines): > 90%
- GI50 (SF-539): 3670 nM
- IC (TGI) (SF-539): 8.1 µM
- CC50 (SF-539): 17.8 µM
- percent cell growth promotion (SF-539; SF-539, single dose 10 μM): 33.99%
- GI50 (HCT-15): 2990 nM
- IC (TGI) (HCT-15): 9.39 µM
- CC50 (HCT-15): > 25 µM
- activity at 10 µM (HCT-15): 13.4%
- GI50 (COLO 205): 910 nM
- IC (TGI) (COLO 205): 5.39 µM
- CC50 (COLO 205): 20.5 µM
- activity at 10 µM (COLO 205): 11.9%
- GI50 (786-0; 786-0, 5 log dose): 4010 nM
- IC (TGI) (786-0; 786-0, 5 log dose): 12.5 µM
- CC50 (786-0; 786-0, 5 log dose, 48 h, read-out: LC50 (the source's name)): > 25 µM
- activity at 10 µM (786-0; 786-0, single dose 10 μM, read-out: percent cell growth promotion): 21.4%
- GI50 (UO-31; UO-31, 5 log dose): 1360 nM
- IC (TGI) (UO-31; UO-31, 5 log dose): 6.66 µM
- CC50 (UO-31; UO-31, 5 log dose, 48 h, read-out: LC50 (the source's name)): 23.8 µM
- activity at 10 µM (UO-31): 1.91%
- GI50 (EKVX): 1610 nM
- IC (TGI) (EKVX): 15 µM
- LC50 (EKVX): > 25 µM
- percent cell growth promotion (EKVX; single dose 10 μM): 16.86%
- effect on cell-cycle progression (HCT-116 cells): induce cell cycle arrest at S phase boundary; also recorded: significant action at both S phase and sub-G1 cell population
- GI50 (UACC-62): 1250 nM
- activity at 10 µM (UACC-62): 8.47%
- CC50 (UACC-62): 19 µM
- TGI (UACC-62): 5.70 µM
- GI50 (SF-295): 2980 nM
- IC (TGI) (SF-295): 8.77 µM
- CC50 (SF-295): > 25 µM
- activity at 10 µM (SF-295): 14.3%
- GI50 (OVCAR-4): 3000 nM
- IC (TGI) (OVCAR-4): > 25 µM
- CC50 (OVCAR-4): > 25 µM
- activity at 10 µM (OVCAR-4): 19.3%
- GI50 (full NCI 60 cell panel [2]; Homo sapiens, 60 cell): 150 to 8410 nM
- sensitivity in the 5 log dose assay, in words (full NCI 60 cell panel [2]; NCI 5 log dose): insensitive to prostate and MCF-7 breast cancer cell lines
- GI50 (NCI-H322M): 3.54 µM
- IC (TGI) (NCI-H322M): 18.3 µM
- CC50 (NCI-H322M): > 25 µM
- activity at 10 µM (NCI-H322M): 30.4%
- GI50 (SK-MEL-2): 2160 nM
- IC (TGI) (SK-MEL-2): 5.83 µM
- CC50 (SK-MEL-2): 14.5 µM
- percent cell growth promotion (SK-MEL-2; SK-MEL-2, single dose 10 μM): 8.63%
- GI50 (A498): 1450 nM
- IC (TGI) (A498): 6.6 µM
- CC50 (A498): 17.6 µM
- activity at 10 µM (A498): 24.7%

SMILES: O=C(Nc1ccc(Cl)cc1)Nc1ccc(Oc2nncc3ccccc23)cc1 [Compound 7b, 1–(4-Chlorophenyl)-3–(4-(phthalazin-1-yloxy)phenyl)urea]
- activity at 10 µM (full NCI 60 cell panel [1]): -6.99%
- inhibition at 10 µM (full NCI 60 cell panel [1]; full panel, read-out: mean growth inhibition): 107%
- GI50 (SF-539): 280 nM
- IC (TGI) (SF-539): 1.13 µM
- CC50 (SF-539): 3.81 µM
- GI50 (HCT-15): 960 nM
- IC (TGI) (HCT-15): 3.08 µM
- CC50 (HCT-15): 9.67 µM
- activity at 10 µM (HCT-15): 2.76%
- GI50 (COLO 205): 1180 nM
- IC (TGI) (COLO 205): 2.92 µM
- CC50 (COLO 205): 7.21 µM
- activity at 10 µM (COLO 205): 11.9%
- GI50 (786-0; 786-0, 5 log dose): 870 nM
- IC (TGI) (786-0; 786-0, 5 log dose): 2.35 µM
- GI50 (UO-31; UO-31, 5 log dose): 1290 nM
- IC (TGI) (UO-31; UO-31, 5 log dose): 2.67 µM
- activity at 10 µM (UO-31): -51.6%
- GI50 (EKVX): 1610 nM
- IC (TGI) (EKVX): 4.5 µM
- LC50 (EKVX): > 100 µM
- GI50 (UACC-62): 1080 nM
- activity at 10 µM (UACC-62): -14.3%
- CC50 (UACC-62): 14 µM
- TGI (UACC-62): 3.46 µM
- GI50 (SF-295): 2540 nM
- IC (TGI) (SF-295): 6.27 µM
- CC50 (SF-295): 36.9 µM
- activity at 10 µM (SF-295): 40.7%
- GI50 (OVCAR-4): 750 nM
- IC (TGI) (OVCAR-4): 3.49 µM
- CC50 (OVCAR-4): 17 µM
- activity at 10 µM (OVCAR-4): -20.8%
- GI50 (full NCI 60 cell panel [2]; Homo sapiens, 60 cell): 150 to 8410 nM
- GI50 (full NCI 60 cell panel [2]): 150 to 2810 nM
- GI50 (NCI-H322M): 2.6 µM
- IC (TGI) (NCI-H322M): 9.51 µM
- CC50 (NCI-H322M): 34.9 µM
- activity at 10 µM (NCI-H322M): 60.9%
- GI50 (SK-MEL-2): 1570 nM
- IC (TGI) (SK-MEL-2): 3.65 µM
- CC50 (SK-MEL-2): 8.5 µM
- GI50 (A498): 1500 nM
- IC (TGI) (A498): 3.06 µM
- CC50 (A498): 6.26 µM
- activity at 10 µM (A498): 24.5%
